From patent publication US20230174497A1, “RHEIN AMIDE DERIVATIVE AND PREPARATION METHOD AND USE THEREOF, AND INHIBITOR OF HEPATOCELLULAR CARCINOMA (HCC) WITH SPECIFIC RECQL4 EXPRESSION” (Shandong First Medical University & Shandong Academy of …, priority 2021, published 2023)

Tests used:
hepatocytes LO2 = assay: CCK-8 cell proliferation assay, LO2 cells; assay type: cell-based; conditions: Hepatocyte, 48 h culture, CCK-8, OD 450 nm, Mean ± S.E.M
Experimental: (§1) The effects of the above-prepared rhein amide derivatives on cell proliferation were detected by a CCK-8 kit.
(§2) The CCK-8 kit can evaluate a proliferation activity of cells by detecting an absorbance at a 450 nm wavelength. SNU398 and LO2 cells were digested to obtain a cell suspension, the cell suspension was diluted with a medium to a density of about 5×10^3 cells/well, 100 µl of cell liquid was added to each well, and a blank group and a negative control group were set up. About 1.0000 mg of the derivative was added in a 0.5 mL EP tube, mixed with dimethyl sulfoxide (DMSO) to prepare a 5×10^-2 M stock solution, and stored at -20° C.
(§3) The stock solutions of 21 compounds prepared in the examples and comparative examples were diluted to final concentrations of 100 µmol/L, 20 µmol/L, 4 µmol/L, 0.8 µmol/L, and 0.16 µmol/L separately using a concentration gradient stepwise dilution method. An original medium in a 96-well plate was discarded by aspiration, 100 µl of the dilutions of the 17 compounds were added to the 96-well plate, and three parallel wells were set up. The dilutions were culture in a cell culture incubator for 48 h. […] A stronger inhibitory ability led to a lower IC50 value, and results were listed in Table 1; statistical analysis and drawing of experimental data was conducted using Graphpad-prism 6.0 software, and a mean ± standard deviation was expressed as (Mean ± S.E.M).

HCC cells SNU398 = assay: CCK-8 cell proliferation assay, SNU398 cells; assay type: cell-based; conditions: for IC50: Homo sapiens, SNU-398, SNU398 cells (high RECQL4 expression), 48 h culture, CCK-8, OD 450 nm, Mean ± S.E.M; for IC50 on HCC cells SNU398 compared with IC50 on hepatocytes LO2 (selectivity in words): SNU398 versus LO2, CCK-8, 48 h
Experimental: as §1, §2, §3

Row | melting point [°C] | IC50 (HCC cells SNU398) [µM] | SMILES | IC50 (hepatocytes LO2) [µM] | IC50 on HCC cells SNU398 compared with IC50 on hepatocytes LO2 (selectivity in words) (HCC cells SNU398)
1 | 175.1 to 176.3 | 25.9 ± 6.94 | COC(=O)C(CC(C)C)NC(=O)c1cc(O)c2c(c1)C(=O)c1cccc(O)c1C2=O (centres unmarked) [Comparative Example 1, methyl (4,5-dihydroxy-9,10-dioxo-9,10-dihydroanthracene-2-carbonyl)leucine] | 0.81 ± 0.16 | 
2 | 179.7 to 182.3 | 470 ± 84.2 | CCC(C)C(NC(=O)c1cc(O)c2c(c1)C(=O)c1cccc(O)c1C2=O)C(=O)OC (centres unmarked) [Comparative Example 2, methyl 2-(4,5-dihydroxy-9,10-dioxy-9,10-dihydroanthracene-2-carboxamide)-3-methylvalerate] | 80.4 ± 2.36 | 
3 | 167.9 to 170 | 188 ± 94.4 | CCOC(=O)C(CC(C)C)NC(=O)c1cc(O)c2c(c1)C(=O)c1cccc(O)c1C2=O (centres unmarked) [Comparative Example 3, ethyl(4,5-dihydroxy-9,10-dioxo-9,10-dihydroanthracene-2-carbonyl)leucinate] | 57.1 ± 3.25 | 
4 | 167 to 167.5 | 47.1 ± 11.5 | CCOC(=O)C(NC(=O)c1cc(O)c2c(c1)C(=O)c1cccc(O)c1C2=O)C(C)CC (centres unmarked) [Comparative Example 4] | 18.2 ± 1.56 | 
5 | 171 to 172.7 | 166 ± 7.62 | CCOC(=O)C(Cc1ccccc1)NC(=O)c1cc(O)c2c(c1)C(=O)c1cccc(O)c1C2=O (centres unmarked) [Comparative Example 5, ethyl (4,5-dihydroxy-9,10-dioxy-9,10-dihydroanthracene-2-carbonyl) phenylalaninate] | 228 ± 7.25 | 
6 | 177.2 to 178 | 19.8 ± 1.23 | CCOC(=O)C(CCSC)NC(=O)c1cc(O)c2c(c1)C(=O)c1cccc(O)c1C2=O (centres unmarked) [Comparative Example 6, ethyl(4,5-dihydroxy-9,10-dioxo-9,10-dihydroanthracene-2-carbonyl)methioninate] | 7.77 ± 0.45 | 
7 | 202.1 to 202.7 | 161 ± 4.53 | CCOC(=O)C(NC(=O)c1cc(O)c2c(c1)C(=O)c1cccc(O)c1C2=O)C(C)C (centres unmarked) [Comparative Example 7, ethyl(4,5-dihydroxy-9,10-dioxo-9,10-dihydroanthracene-2-carbonyl)valerate] | 13.7 ± 0.89 | 
8 |  |  | CC(C)CNC(=O)c1cc(O)c2c(c1)C(=O)c1cccc(O)c1C2=O [Comparative Example 8, 4,5-dihydroxy-N-isobutyl-9,10-dioxy-9,10-dihydroanthracene-2-carboxamide] | 118 ± 12.3 | 
9 | 244.5 to 249.4 | 111 ± 12.5 | COc1ccc(CNC(=O)c2cc(O)c3c(c2)C(=O)c2cccc(O)c2C3=O)cc1 [Comparative Example 9, 4,5-dihydroxy-N-(4-methoxybenzyl)-9,10-dioxy-9,10-dihydroanthracene-2-carboxamide] | 106 ± 9.72 | 
10 | 270.1 to 272.2 | 222 ± 18.7 | CC(=O)c1ccc(N2CCN(C(=O)c3cc(O)c4c(c3)C(=O)c3cccc(O)c3C4=O)CC2)cc1 [Comparative Example 10, 3-(4-(4-acetylphenyl)piperazin-1-carbonyl)-1,8-dihydroxyanthracene-9,10-dione] | 104 ± 9.96 | 
11 | 236.3 to 237.9 | 0.46 ± 0.08 | COC(=O)C(C)NC(=O)c1cc(O)c2c(c1)C(=O)c1cccc(O)c1C2=O (centres unmarked) [Example 1, methyl(4,5-dihydroxy-9,10-dioxy-9,10-dihydroanthracene-2-carbonyl) alaninate] | 5.41 | much smaller than the IC50 on hepatocytes LO2
12 | 196.7 to 197.2 | 8.81 ± 0.78 | CCOC(=O)C(CC)NC(=O)c1cc(O)c2c(c1)C(=O)c1cccc(O)c1C2=O (centres unmarked) [Example 2, ethyl 2-(4,5-dihydroxy-9,10-dioxy-9,10-dihydroanthracene-2-carboxamide)butanoate] | 104 ± 9.36 | much smaller than the IC50 on hepatocytes LO2
13 | 202 to 202.3 | 66.8 ± 2.21 | CCOC(=O)CCC(NC(=O)c1cc(O)c2c(c1)C(=O)c1cccc(O)c1C2=O)C(=O)OCC (centres unmarked) [Example 3, diethyl(4,5-dihydroxy-9,10-dioxo-9,10-dihydroanthracene-2-carbonyl) glutamate] | 114 ± 4.11 | 
14 | 174.7 to 175.2 | 27.9 ± 3.45 | CCOC(=O)CC(NC(=O)c1cc(O)c2c(c1)C(=O)c1cccc(O)c1C2=O)C(=O)OCC (centres unmarked) [Example 4, diethyl(4,5-dihydroxy-9,10-dioxo-9,10-dihydroanthracene-2-carbonyl)aspartate] | 117 | much smaller than the IC50 on hepatocytes LO2
15 | 264.1 to 265 | 116 ± 5.25 | CCCNC(=O)c1cc(O)c2c(c1)C(=O)c1cccc(O)c1C2=O [Example 5, 4,5-dihydroxy-9,10-dioxo-n-propyl-9,10-dihydroanthracene-2-carboxamide] | 228 ± 10.8 | 
16 | 215.2 to 215.9 | 5.85 ± 0.49 | CCCCNC(=O)c1cc(O)c2c(c1)C(=O)c1cccc(O)c1C2=O [Example 6, N-butyl-4,5-dihydroxy-9,10-dioxy-9,10-dihydroanthracene-2-carboxamide] | 113 ± 8.56 | much smaller than the IC50 on hepatocytes LO2
17 | 222.2 to 222.8 | 19 ± 1.96 | CCOC(=O)N1CCN(C(=O)c2cc(O)c3c(c2)C(=O)c2cccc(O)c2C3=O)CC1 [Example 7] | 26.3 ± 15.8 | 
